Measurements from patent publication US9394268B2, “(E)-1-(5-methoxy-2,2-dimethyl-2H-chromen-8-yl)-3-(4-methoxyphenyl)prop-2-en-1-one and analogs thereof, as well as preparation method and use thereof” (Sichuan University, priority 2012, dated 2016).
Entries after “also recorded” stand apart in the source; their conditions may differ.

Experiments:
K562 = experiment: Cell proliferative assay (MTT), K562; format: cell-based; conditions: Homo sapiens, 72 h incubation, read-out: IC50s K562
Summary of the method: (§1)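 Seed cells, incubate 24 h, add compounds at various doses, incubate 72 h, add MTT, measure absorbance at 590 nm. IC50 from dose-response curves, mean±SEM of ≥3 experiments.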

A375 = experiment: Cell proliferative assay (MTT), A375; format: cell-based; conditions: Homo sapiens, A-375, 72 h incubation, read-out: IC50s A375
Summary of the method: as §1

A549 = experiment: Cell proliferative assay (MTT), A549; format: cell-based; conditions: Homo sapiens, 72 h incubation, read-out: IC50s A549
Summary of the method: as §1

SMMC-7221 = experiment: Cell proliferative assay (MTT), SMMC-7221; format: cell-based; conditions: 72 h incubation, read-out: IC50s SMMC-7221
Summary of the method: as §1

HepG2 = experiment: Cell proliferative assay (MTT), HepG2; format: cell-based; conditions: Homo sapiens, 72 h incubation, read-out: IC50s HepG2
Summary of the method: as §1

LO2 = experiment: Cell proliferative assay (MTT), LO2; format: cell-based; conditions: Homo sapiens, L02, 72 h incubation, read-out: IC50s LO2
Summary of the method: as §1

tumor cells = experiment: Cell proliferative assay (MTT), summary over tumor cells; format: cell-based; conditions: summary in words of Table 1; colon, liver, leukemia lines
Experimental: (§2) The synthesized compounds were evaluated for their cytotoxin activity against suspended tumor cells. These cells were seeded on 96-well plates and incubated for 24 h. Selected compounds were added at various doses and incubated for 72 h, MTT was then added, and the absorbance was measured at a wavelength of 590 nm. IC50 values are expressed as the mean±SEM from the dose-response curves of at least three independent experiments.

SW620 = experiment: Cell proliferative assay (MTT), SW620; format: cell-based; conditions: Homo sapiens, SW-620, 72 h incubation, read-out: IC50s SW620
Experimental: as §2

HT29 = experiment: Cell proliferative assay (MTT), HT29; format: cell-based; conditions: Homo sapiens, HT-29, 72 h incubation, read-out: IC50s HT29
Experimental: as §2

HCT116 = experiment: Cell proliferative assay (MTT), HCT116; format: cell-based; conditions: Homo sapiens, HCT-116, 72 h incubation, read-out: IC50s HCT116
Experimental: as §2

HepG2 cells = experiment: Human hepatocarcinoma HepG2 xenograft (SKLBC-45 study); format: in vivo, Balb/c nude mice; conditions: 2.5, 5, 10, 20 mg/kg intravenous every three days for eight times; vs vehicle control
Experimental: (5) In Vivo Anti-Tumor Activity of SKLBC-45 on Human Hepatocarcinoma HepG2 Xenograft
Six-week-old Balb/c nude mice were obtained from Chinese Academy of Medical Science (Beijing, China). HepG2 cells (10^7 in 100 μl saline) were injected subcutaneously into the right flanks of the mice. 14 days after cell injection, seventy mice were selected and randomly divided into seven groups including saline control, vehicle control, four doses of SKLBC-45 (2.5, 5, 10, 20 mg/kg) and positive control Adriamycin (5 mg/kg). The animals were intravenously injected with saline, SKLBC-45, adriamycin or vehicle every three days for eight times. Tumor burden and animal body weight was measured every 2 or 3 days. The survival rate was also recorded. After treatment, mice were killed and tumors were collected and weighted.

| SMILES | IC50 (K562) [µM] | IC50 (A375) [µM] | IC50 (A549) [µM] | IC50 (SMMC-7221) [µM] | IC50 (HepG2) [µM] | IC50 (LO2) [µM] | inhibitory activity against tumor cells (tumor cells) | IC50 (SW620) [µM] | IC50 (HT29) [µM] | IC50 (HCT116) [µM] | average tumor weight (HepG2 cells) | growth of tumor (HepG2 cells) |
| --- | --- | --- | --- | --- | --- | --- | --- | --- | --- | --- | --- | --- |
| CCN(CC)c1ccc(/C=C/C(=O)c2ccc(OC(=O)c3ccco3)c3c2OC(C)(C)C=C3)cc1 [SKLBC-50, (E)-8-(3-(4-(diethylamino)phenyl)acryloyl)-2,2-dimethyl-2H-chromen-5-yl furan-2-carboxylate] | 0.59 | 9.2 | 1.61 | 9.7 | 0.703 | > 20 | better inhibitory activity |  |  |  |  |  |
| COc1ccc(C(=O)/C=C/c2ccc3ccccc3n2)c2c1C=CC(C)(C)O2 [SKLBC-16, (E)-1-(5-methoxy-2,2-dimethyl-2H-chromen-8-yl)-3-(quinolin-2-yl)prop-2-en-1-one] | 3.02 |  |  |  | 4.28 |  | better inhibitory activity | 2.25 | 3.79 | > 10 |  |  |
| COc1ccc(C(=O)/C=C/c2ccc(N3CCCC3)cc2)c2c1C=CC(C)(C)O2 [SKLBC-14, (E)-1-(5-methoxy-2,2-dimethyl-2H-chromen-8-yl)-3-(4-(pyrrolidin-1-yl)phenyl)prop-2-en-1-one] | > 10 |  |  |  | 4.74 |  | better inhibitory activity | > 10 | > 10 | 8.88 |  |  |
| CCN(CC)c1ccc(/C=C/C(=O)c2ccc(OC)c3c2OC(C)(C)C=C3)cc1 [SKLBC-12, (E)-3-(4-(diethylamino)phenyl)-1-(5-methoxy-2,2-dimethyl-2H-chromen-8-yl)prop-2-en-1-one] | 4.6 |  |  |  | 2.3 |  | better inhibitory activity | > 10 | 1.31 | > 10 |  |  |
| COc1ccc(C(=O)/C=C/c2cccc([N+](=O)[O-])c2)c2c1C=CC(C)(C)O2 [SKLBC-18, (E)-1-(5-methoxy-2,2-dimethyl-2H-chromen-8-yl)-3-(3-nitrophenyl)prop-2-en-1-one] | 5.87 |  |  |  | 2.83 |  | better inhibitory activity | 4.09 | 4.26 | 8.05 |  |  |
| CCN(CC)c1ccc(/C=C/C(=O)c2ccc(OS(C)(=O)=O)c3c2OC(C)(C)C=C3)cc1 [SKLBC-47, (E)-8-(3-(4-(diethylamino)phenyl)acryloyl)-2,2-dimethyl-2H-chromen-5-yl methanesulfonate] | 0.528 | 0.45 | 8.45 | 0.23 | 0.185 | > 20 | better inhibitory activity |  |  |  |  |  |
| CCN(CC)c1ccc(/C=C/C(=O)c2ccc(OC(=O)C(C)C)c3c2OC(C)(C)C=C3)cc1 [SKLBC-52, (E)-8-(3-(4-(diethylamino)phenyl)acryloyl)-2,2-dimethyl-2H-chromen-5-yl isobutyrate] | 0.317 | 0.61 | 0.94 | 0.78 | 0.59 | > 10 | better inhibitory activity |  |  |  |  |  |
| COc1ccc(/C=C/C(=O)c2ccc(OC)c3c2OC(C)(C)C=C3)c(F)c1 [SKLBC-4, (E)-3-(2-fluoro-4-methoxyphenyl)-1-(5-methoxy-2,2-dimethyl-2H-chromen-8-yl)prop-2-en-1-one] | > 10 |  |  |  | 7.56 |  | better inhibitory activity | 6.57 | > 10 | > 10 |  |  |
| CCN(CC)c1ccc(/C=C/C(=O)c2ccc(OC(=O)Cc3cccc(C(F)(F)F)c3)c3c2OC(C)(C)C=C3)cc1 [SKLBC-55, (E)-8-(3-(4-(diethylamino)phenyl)acryloyl)-2,2-dimethyl-2H-chromen-5-yl 2-(3-(trifluoromethyl)phenyl)acetate] | 1.05 | 0.48 | 0.5 | 1.62 | 1.07 | > 10 | better inhibitory activity |  |  |  |  |  |
| C=CC(=O)Oc1ccc(C(=O)/C=C/c2ccc(N(CC)CC)cc2)c2c1C=CC(C)(C)O2 [SKLBC-49, (E)-8-(3-(4-(diethylamino)phenyl)acryloyl)-2,2-dimethyl-2H-chromen-5-yl acrylate] | 2.92 | 4.1 | 6.9 | 8.6 | 5.55 | 8.6 | better inhibitory activity |  |  |  |  |  |
| CCN(CC)c1ccc(/C=C/C(=O)c2ccc(OS(=O)(=O)c3ccc(C)cc3)c3c2OC(C)(C)C=C3)cc1 [SKLBC-46, (E)-8-(3-(4-(diethylamino)phenyl)acryloyl)-2,2-dimethyl-2H-chromen-5-yl 4-methylbenzenesulfonate] | 4.42 | 8.4 | 9.7 | > 10 | 9.7 | 8.2 | better inhibitory activity |  |  |  |  |  |
| COc1ccc(C(=O)/C=C/c2ccc3ccccc3c2)c2c1C=CC(C)(C)O2 [SKLBC-10, (E)-1-(5-methoxy-2,2-dimethyl-2H-chromen-8-yl)-3-(naphthalen-2-yl)prop-2-en-1-one] | 3.67 |  |  |  | 0.21 |  | better inhibitory activity | 2.14 | 4.48 | > 10 |  |  |
| CCC(=O)Oc1ccc(C(=O)/C=C/c2ccc(N(CC)CC)cc2)c2c1C=CC(C)(C)O2 [SKLBC-45, (E)-8-(3-(4-(diethylamino)phenyl)acryloyl)-2,2-dimethyl-2H-chromen-5-yl propionate] | 0.522 | 0.62 | 0.36 | 0.61 | 0.148 | 20 | better inhibitory activity; also recorded: best inhibitory activity |  |  |  | significantly lower | significantly inhibited |
| COc1ccc(C(=O)/C=C/c2ccccn2)c2c1C=CC(C)(C)O2 [SKLBC-33, (E)-1-(5-methoxy-2,2-dimethyl-2H-chromen-8-yl)-3-(pyridin-2-yl)prop-2-en-1-one] | 5.4 |  |  |  | 5.76 |  | better inhibitory activity | 5 | 2.12 | > 10 |  |  |
| CCN(CC)c1ccc(/C=C/C(=O)c2ccc(OC(=O)C3CC3)c3c2OC(C)(C)C=C3)cc1 [SKLBC-54, (E)-8-(3-(4-(diethylamino)phenyl)acryloyl)-2,2-dimethyl-2H-chromen-5-yl cyclopropanecarboxylate] | 0.51 | 0.263 | 0.41 | 0.773 | 0.533 | > 10 | better inhibitory activity |  |  |  |  |  |
| COc1ccc(/C=C/C(=O)c2ccc(OC)c3c2OC(C)(C)C=C3)cc1O [SKLBC-28, (E)-3-(3-hydroxy-4-methoxyphenyl)-1-(5-methoxy-2,2-dimethyl-2H-chromen-8-yl)prop-2-en-1-one] | 3.55 |  |  |  | 0.78 |  | better inhibitory activity | 0.67 | 1.47 | 1.63 |  |  |
| COc1ccc(C(=O)/C=C/c2ccc([N+](=O)[O-])cc2)c2c1C=CC(C)(C)O2 [SKLBC-17, (E)-1-(5-methoxy-2,2-dimethyl-2H-chromen-8-yl)-3-(4-nitrophenyl)prop-2-en-1-one] | 7.77 |  |  |  | 2.61 |  | better inhibitory activity | 3.52 | 3.73 | > 10 |  |  |
